Assays:
HRAS wild-type protein = HRAS wild-type protein (Homo sapiens, UniProt P01112); assay: Binding to HRAS by surface plasmon resonance (SPR), KD and KD ratio to KRAS; details: ratio of KD for HRAS wild-type protein to KD for KRAS
Outline: (§1)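 Recombinant RAS proteins bearing a biotinylated Avi tag and loaded with GDP served as the captured ligand, recaptured fresh every cycle. Binding responses were referenced to an uncoated surface and a buffer-only blank cycle. Dissociation constants were obtained by 1:1 model fitting at 30°C.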

[1] = test system: human lung cancer strain NCI-H441; assay: NCI-H441 cell proliferation inhibitory activity (CellTiter-Glo, 4 days); type: cell-based; details: NCI-H441 cells, 4 days, read-out: NCl-H441 IC50
Outline: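 Signal came from […] measured per well once the reagent was added. Beforehand, cells were cultured at 37°C and 5% carbon dioxide on a compound series serially diluted in dimethyl sulfoxide.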

[2] = target: GDP-bound KRAS wild-type protein (Homo sapiens, UniProt P01116); assay: Binding to KRAS by surface plasmon resonance (SPR), dissociation constant KD; details: Single Cycle Kinetics
Outline: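 Each cycle, GDP-bound biotin-Avi RAS was captured (~100–300 RU), compound concentrations were injected low to high for 75 s each at 100 µL/min, then the chip was regenerated. Buffer: HBS pH 7.4, 10 mM MgCl2, 10 µM GDP, 1 mM DTT, 4% DMSO; 30°C. KD from a 1:1 binding model.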

[3] = target: GDP-bound NRAS wild-type protein (Homo sapiens, UniProt P01111); assay: Binding to NRAS by surface plasmon resonance (SPR), KD and KD ratio to KRAS; details: ratio of KD for GDP-bound NRAS wild-type protein to KD for KRAS
Outline: as §1

HRAS wild-type protein, sequence (P01112 whole entry): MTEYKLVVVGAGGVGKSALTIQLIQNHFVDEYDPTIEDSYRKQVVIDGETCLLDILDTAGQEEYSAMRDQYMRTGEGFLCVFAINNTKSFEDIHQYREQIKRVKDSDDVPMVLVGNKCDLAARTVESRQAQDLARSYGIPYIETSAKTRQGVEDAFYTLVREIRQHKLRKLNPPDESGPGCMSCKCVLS
GDP-bound NRAS wild-type protein, sequence (P01111 whole entry): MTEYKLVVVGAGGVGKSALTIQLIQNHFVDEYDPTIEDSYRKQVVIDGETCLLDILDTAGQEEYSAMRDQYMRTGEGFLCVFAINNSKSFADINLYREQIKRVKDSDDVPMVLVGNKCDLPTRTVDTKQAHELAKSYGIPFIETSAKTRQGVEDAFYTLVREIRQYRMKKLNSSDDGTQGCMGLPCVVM
GDP-bound KRAS wild-type protein, sequence (P01116 1-188 isoform P01116-2): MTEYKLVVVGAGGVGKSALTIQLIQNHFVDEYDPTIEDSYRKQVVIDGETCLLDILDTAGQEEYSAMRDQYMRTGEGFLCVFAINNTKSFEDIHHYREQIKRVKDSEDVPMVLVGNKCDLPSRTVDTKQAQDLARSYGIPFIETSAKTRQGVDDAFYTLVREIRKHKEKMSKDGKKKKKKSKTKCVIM

SMILES | HRAS /KRAS (HRAS wild-type protein) | IC50 [1] | Kd [2] | NRAS /KRAS [3]
C=C(C)C[C@H]1C(=O)N(C)[C@H](C(=O)N(C)C)CC(=O)N(C)[C@@H](CCC)C(=O)N[C@@H]([C@@H](C)CC)C(=O)N2CCC[C@H]2C(=O)N(C)[C@H]2C/C=C\CCN(C2=O)[C@@H](Cc2ccc(C(F)(F)F)cc2)C(=O)N(C)CC(=O)N[C@@H](CCc2ccc(C(F)(F)F)c(OC)c2)C(=O)N2C[C@H](OCC)C[C@H]2C(=O)N(C)C2(CCC2)C(=O)N1C [PP3335] | A (a compound having 10 or more and less than 20 is denoted as A) | 90.6 nM | 2.5 nM | A (a compound having 10 or more and less than 20 is denoted as A)
C=CC[C@H]1C(=O)N(C)[C@H](C(=O)N(C)C)CC(=O)N(C)[C@@H](CCC)C(=O)N[C@@H]([C@@H](C)CC)C(=O)N(C)CC(=O)N(C)[C@H]2C/C=C\CCN(C2=O)[C@@H](Cc2ccc(C(F)(F)F)cc2)C(=O)N(C)CC(=O)N[C@@H](CCc2cc(F)c(C(F)(F)F)c(F)c2)C(=O)N2C[C@H](OCC)C[C@H]2C(=O)N(C)C2(CCC2)C(=O)N1C [PP3336] | A (a compound having 10 or more and less than 20 is denoted as A) | 66.1 nM | 1.5 nM | A (a compound having 10 or more and less than 20 is denoted as A)
C=C(C)C[C@H]1C(=O)N(C)[C@H](C(=O)N(C)C)CC(=O)N(C)[C@@H](CCC)C(=O)N[C@@H]([C@@H](C)CC)C(=O)N(C)CC(=O)N(C)[C@H]2C/C=C\CCN(C2=O)[C@@H](Cc2ccc(C(F)(F)F)cc2)C(=O)N(C)CC(=O)N[C@@H](CCc2cc(F)c(C(F)(F)F)c(F)c2)C(=O)N2C[C@H](OCC)C[C@H]2C(=O)N(C)C2(CCC2)C(=O)N1C [PP3337] | A (a compound having 10 or more and less than 20 is denoted as A) | 65.5 nM | 1.3 nM | A (a compound having 10 or more and less than 20 is denoted as A)
C=CC[C@H]1C(=O)N(C)[C@H](C(=O)N(C)C)CC(=O)N(C)[C@@H](CCC)C(=O)N[C@@H]([C@@H](C)CC)C(=O)N2CCC[C@H]2C(=O)N(C)[C@H]2C/C=C\CCN(C2=O)[C@@H](Cc2ccc(C(F)(F)F)cc2)C(=O)N(C)CC(=O)N[C@@H](CCc2cc(F)c(C(F)(F)F)c(F)c2)C(=O)N2C[C@H](OCC)C[C@H]2C(=O)N(C)C2(CCC2)C(=O)N1C [PP3338] | A (a compound having 10 or more and less than 20 is denoted as A) | 104 nM | 4.6 nM | A (a compound having 10 or more and less than 20 is denoted as A)
C=C(C)C[C@H]1C(=O)N(C)[C@H](C(=O)N(C)C)CC(=O)N(C)[C@@H](CCC)C(=O)N[C@@H]([C@@H](C)CC)C(=O)N2CCC[C@H]2C(=O)N(C)[C@H]2C/C=C\CCN(C2=O)[C@@H](Cc2ccc(C(F)(F)F)cc2)C(=O)N(C)CC(=O)N[C@@H](CCc2cc(F)c(C(F)(F)F)c(F)c2)C(=O)N2C[C@H](OCC)C[C@H]2C(=O)N(C)C2(CCC2)C(=O)N1C [PP3339] | A (a compound having 10 or more and less than 20 is denoted as A) | 104 nM | 3.6 nM | A (a compound having 10 or more and less than 20 is denoted as A)
CCC[C@H]1C(=O)N[C@@H](C23CC(C2)C3)C(=O)N(C)CC(=O)N(C)[C@H]2C/C=C\CCN(C2=O)[C@@H](Cc2ccc(C(F)(F)F)cc2)C(=O)N(C)CC(=O)N[C@@H](CCc2ccc(C(F)(F)F)c(OC)c2)C(=O)N2C[C@H](OCC)C[C@H]2C(=O)N(C)C2(CCC2)C(=O)N(C)[C@@H](C2CCCC2)C(=O)N(C)[C@H](C(=O)N(C)C)CC(=O)N1C [PP3341] | A (a compound having 10 or more and less than 20 is denoted as A) | 28.3 nM | 0.46 nM | A (a compound having 10 or more and less than 20 is denoted as A)
CCC[C@H]1C(=O)N[C@@H](C23CC(C2)C3)C(=O)N2CCC[C@H]2C(=O)N(C)[C@H]2C/C=C\CCN(C2=O)[C@@H](Cc2ccc(C)cc2)C(=O)N(C)CC(=O)N[C@@H](CCc2ccc(C(F)(F)F)c(OC)c2)C(=O)N2C[C@H](OCC)C[C@H]2C(=O)N(C)C2(CCC2)C(=O)N(C)[C@@H](C2CCCC2)C(=O)N(C)[C@H](C(=O)N(C)C)CC(=O)N1C [PP3342] | A (a compound having 10 or more and less than 20 is denoted as A) | 22.8 nM | 1.8 nM | A (a compound having 10 or more and less than 20 is denoted as A)
CCC[C@H]1C(=O)N[C@@H](C23CC(C2)C3)C(=O)N2CCC[C@H]2C(=O)N(C)[C@H]2C/C=C\CCN(C2=O)[C@@H](Cc2ccc(C(F)(F)F)cc2)C(=O)N(C)CC(=O)N[C@@H](CCc2ccc(C(F)(F)F)c(OC)c2)C(=O)N2C[C@H](OCC)C[C@H]2C(=O)N(C)C2(CCC2)C(=O)N(C)[C@@H](C2CCCC2)C(=O)N(C)[C@H](C(=O)N(C)C)CC(=O)N1C [PP3343] | A (a compound having 10 or more and less than 20 is denoted as A) | 29.3 nM | 2.4 nM | A (a compound having 10 or more and less than 20 is denoted as A)
C=CC[C@H]1C(=O)N(C)[C@H](C(=O)N(C)C)CC(=O)N(C)[C@@H](CC(C)C)C(=O)N[C@@H]([C@@H](C)CC)C(=O)N(C)CC(=O)N(C)[C@H]2C/C=C\CCN(C2=O)[C@@H](Cc2ccc(C)cc2)C(=O)N(C)CC(=O)N[C@@H](CCc2ccc(C(F)(F)F)c(OC)c2)C(=O)N2C[C@H](OCC)C[C@H]2C(=O)N(C)C2(CCC2)C(=O)N1C [PP3344] | B (a compound having 3 or more and less than 10 is denoted as B) | 54.9 nM | 1.4 nM | A (a compound having 10 or more and less than 20 is denoted as A)
C=C(C)C[C@H]1C(=O)N(C)[C@H](C(=O)N(C)C)CC(=O)N(C)[C@@H](CC(C)C)C(=O)N[C@@H]([C@@H](C)CC)C(=O)N(C)CC(=O)N(C)[C@H]2C/C=C\CCN(C2=O)[C@@H](Cc2ccc(C)cc2)C(=O)N(C)CC(=O)N[C@@H](CCc2ccc(C(F)(F)F)c(OC)c2)C(=O)N2C[C@H](OCC)C[C@H]2C(=O)N(C)C2(CCC2)C(=O)N1C [PP3345] | A (a compound having 10 or more and less than 20 is denoted as A) | 58.3 nM | 0.86 nM | A (a compound having 10 or more and less than 20 is denoted as A)
C=CC[C@H]1C(=O)N(C)[C@H](C(=O)N(C)C)CC(=O)N(C)[C@@H](CC(C)C)C(=O)N[C@@H]([C@@H](C)CC)C(=O)N(C)CC(=O)N(C)[C@H]2C/C=C\CCN(C2=O)[C@@H](Cc2ccc(C)cc2)C(=O)N(C)CC(=O)N[C@@H](CCc2cc(F)c(C(F)(F)F)c(F)c2)C(=O)N2C[C@H](OCC)C[C@H]2C(=O)N(C)C2(CCC2)C(=O)N1C [PP3348] | A (a compound having 10 or more and less than 20 is denoted as A) | 25.4 nM | 1.4 nM | A (a compound having 10 or more and less than 20 is denoted as A)
C=C(C)C[C@H]1C(=O)N(C)[C@H](C(=O)N(C)C)CC(=O)N(C)[C@@H](CC(C)C)C(=O)N[C@@H]([C@@H](C)CC)C(=O)N(C)CC(=O)N(C)[C@H]2C/C=C\CCN(C2=O)[C@@H](Cc2ccc(C)cc2)C(=O)N(C)CC(=O)N[C@@H](CCc2cc(F)c(C(F)(F)F)c(F)c2)C(=O)N2C[C@H](OCC)C[C@H]2C(=O)N(C)C2(CCC2)C(=O)N1C [PP3349] | A (a compound having 10 or more and less than 20 is denoted as A) | 15.7 nM | 1.7 nM | A (a compound having 10 or more and less than 20 is denoted as A)
C=C(C)C[C@H]1C(=O)N(C)[C@H](C(=O)N(C)C)CC(=O)N(C)[C@@H](CC(C)C)C(=O)N[C@@H]([C@@H](C)CC)C(=O)N2CCC[C@H]2C(=O)N(C)[C@H]2C/C=C\CCN(C2=O)[C@@H](Cc2ccc(C)cc2)C(=O)N(C)CC(=O)N[C@@H](CCc2cc(F)c(C(F)(F)F)c(F)c2)C(=O)N2C[C@H](OCC)C[C@H]2C(=O)N(C)C2(CCC2)C(=O)N1C [PP3351] | A (a compound having 10 or more and less than 20 is denoted as A) | 34.7 nM | 4.2 nM | A (a compound having 10 or more and less than 20 is denoted as A)
CCCN(C)C(=O)[C@@H]1CC(=O)N(C)[C@@H](CC(C)C)C(=O)N[C@@H]([C@@H](C)CC)C(=O)N(C)CC(=O)N(C)[C@H]2C/C=C\CCN(C2=O)[C@@H](Cc2ccc(C(F)(F)F)cc2)C(=O)N(C)CC(=O)N[C@@H](CCc2cc(F)c(C(F)(F)F)c(F)c2)C(=O)N2C[C@H](OCC)C[C@H]2C(=O)N[C@]2(C[C@@H](OC)C2)C(=O)N(C)[C@@H](C2CCCC2)C(=O)N1C [PP3352] | B (a compound having 3 or more and less than 10 is denoted as B) | 12.4 nM | 0.28 nM | A (a compound having 10 or more and less than 20 is denoted as A)
